pIC50: −log10 of the molar value.
Columns and labels:
[1] = target: T1, Avi-KRAS WT (1-169) GppNHp/RAF1 RBD-3xFLAG (52-151) (Homo sapiens, UniProt P01116); experiment: Raf1-KRAS WT-GppNHP disruption HTRF assay (Biological Example 1); assay type: binding
T1 construct: Avi-KRAS WT (1-169)
How it was run: (§1)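 Read-out is HTRF signal of the KRAS–RAF1 RBD complex, reported as percentage of activity relative to DMSO (100%). Protein mix and detection reagents each incubated 1 h at room temperature with 700 rpm shaking. Buffer: 50 mM Tris pH 7.5, 100 mM NaCl, 5 mM MgCl2, 0.1% BSA, 0.01% Tween, 10% DMSO.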

[2] = target: T2, Avi-KRAS G12R (1-169) GppNHp/RAF1 RBD-3xFLAG (52-151) (Homo sapiens, UniProt P01116, G12R); experiment: Raf1-KRAS G12R-GppNHP disruption HTRF assay (Biological Example 1); assay type: binding
T2 construct: Avi-KRAS G12R (1-169)
How it was run: as §1

[3] = target: T3, Avi-KRAS G12V (1-169) GppNHp/RAF1 RBD-3xFLAG (52-151) (Homo sapiens, UniProt P01116, G12V); experiment: Raf1-KRAS G12V-GppNHP disruption HTRF assay (Biological Example 1); assay type: binding
T3 construct: Avi-KRAS G12V (1-169)
How it was run: as §1

SW620 cells (KRAS G12V) = experiment: Cell-based pERK HTRF assay in SW620 cell (Biological Example 4); conditions: Homo sapiens, SW-620, SW620 (KRAS G12V) cells, pERK HTRF
How it was run: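 SW620 (KRAS G12V) cells seeded at 3×10^4/well in RPMI, 10% FBS, then treated next day for 4 h with a 9-point half-log series from 1 μM top (0.25% DMSO). Lysates analyzed for pERK by HTRF (Eu cryptate/d2 antibodies, 4–24 h at room temperature), excitation 320 nm, emission 615 nm.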

GP2d cells (KRAS G12D) = experiment: Cell-based pERK HTRF assay in GP2d cell (Biological Example 2); conditions: GP2d, GP2d (KRAS G12D) cells, pERK HTRF
How it was run: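 Treatment with test compounds lasted one hour in DMEM containing 10% FBS, with DMSO held at 0.25%. Dilution series: 9 points, half-log spacing, highest 1 μM or 100 nM. Lysates were incubated 4–24 h at room temperature with antibody mix, then HTRF was read at 320 nm excitation.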

[4] = target: T4, Avi-KRAS G12D (1-169) GppNHp/RAF1 RBD-3xFLAG (52-151) (Homo sapiens, UniProt P01116, G12D); experiment: Raf1-KRAS G12D-GppNHP disruption HTRF assay (Biological Example 1); assay type: binding
T4 construct: Avi-KRAS G12D (1-169)
How it was run: as §1

[5] = KRAS WT, GppNHp-loaded, class symbols
[6] = KRAS G12R, GppNHp-loaded, class symbols
[7] = KRAS G12V, GppNHp-loaded, class symbols
[8] = KRAS G12D, GppNHp-loaded, class symbols
[9] = KRAS WT, GppNHp-loaded, Table 11
[10] = KRAS G12R, GppNHp-loaded, Table 11
[11] = KRAS G12V, GppNHp-loaded, Table 11
[12] = KRAS G12D, GppNHp-loaded, Table 11

T2 sequence (P01116 1-169 isoform P01116-2 G12R): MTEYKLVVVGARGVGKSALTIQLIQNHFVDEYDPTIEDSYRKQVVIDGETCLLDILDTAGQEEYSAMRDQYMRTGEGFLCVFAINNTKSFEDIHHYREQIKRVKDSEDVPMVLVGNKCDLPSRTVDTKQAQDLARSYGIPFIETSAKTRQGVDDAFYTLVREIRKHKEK
T1 sequence (P01116 1-169 isoform P01116-2): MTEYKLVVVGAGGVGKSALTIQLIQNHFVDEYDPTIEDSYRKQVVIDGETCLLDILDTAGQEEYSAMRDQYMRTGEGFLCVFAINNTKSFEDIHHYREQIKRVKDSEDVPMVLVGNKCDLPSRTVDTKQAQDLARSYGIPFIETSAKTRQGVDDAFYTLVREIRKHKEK
T4 sequence (P01116 1-169 isoform P01116-2 G12D): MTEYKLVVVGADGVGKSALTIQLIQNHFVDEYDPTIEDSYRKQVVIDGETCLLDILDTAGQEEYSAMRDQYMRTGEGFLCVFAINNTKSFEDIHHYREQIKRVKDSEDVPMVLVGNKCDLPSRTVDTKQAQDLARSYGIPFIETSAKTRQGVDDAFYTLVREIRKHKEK
T3 sequence (P01116 1-169 isoform P01116-2 G12V): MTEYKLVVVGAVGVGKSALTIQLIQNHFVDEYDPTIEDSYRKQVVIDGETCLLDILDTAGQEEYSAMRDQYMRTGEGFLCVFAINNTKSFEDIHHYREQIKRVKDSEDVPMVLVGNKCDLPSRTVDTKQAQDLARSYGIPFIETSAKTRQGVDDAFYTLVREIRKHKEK

Row | SMILES | pIC50 [1, 5] | pIC50 [2, 6] | pIC50 [3, 7] | pIC50 (SW620 cells (KRAS G12V); class symbols) | pIC50 (GP2d cells (KRAS G12D); class symbols) | pIC50 [4, 8] | pIC50 ([1]; KRAS WT-GppNHp/RAF1 RBD HTRF) | pIC50 ([2]; KRAS G12R-GppNHp/RAF1 RBD HTRF) | pIC50 ([3]; KRAS G12V-GppNHp/RAF1 RBD HTRF) | pIC50 (SW620 cells (KRAS G12V)) | pIC50 (GP2d cells (KRAS G12D)) | pIC50 ([4]; KRAS G12D-GppNHp/RAF1 RBD HTRF) | pIC50 [1, 9] | pIC50 [2, 10] | pIC50 [3, 11] | pIC50 [4, 12]
1 | CCN(c1nc(OC[C@H]2C[C@@H](OC)CN2C)nc2c(F)c(-c3ccc(F)c4sc(N)c(C#N)c34)c(C(F)(F)F)cc12)[C@H]1CCN(C(=O)C(C)C)C1 [Compound 592] | 5.00 to 6.00 | 5.00 to 6.00 | 5.00 to 6.00 | 6.00 to 7.00 | > 7.00 | 5.00 to 6.00 |  |  |  |  |  |  |  |  |  | 
2 | CC(=O)N1C[C@H]2CCCN(c3nc(OC[C@@]45CCCN4C[C@H](F)C5)nc4c(F)c(-c5ccc(F)c6sc(N)c(C#N)c56)c(C(F)(F)F)cc34)[C@H]2C1 [Compound 453] |  |  |  |  |  |  | 5.00 to 6.00 | 5.00 to 6.00 | 5.00 to 6.00 | > 7.00 | > 7.00 | 5.00 to 6.00 |  |  |  | 
3 | N#Cc1c(N)sc2c(F)ccc(-c3c(C(F)(F)F)cc4c(N5CCn6nc(C7CC7)cc6C5)nc(OC[C@@]56CCCN5C[C@H](F)C6)nc4c3F)c12 [Compound 483] |  |  |  |  |  |  | < 5.00 | < 5.00 | < 5.00 | > 7.00 | > 7.00 | 5.00 to 6.00 |  |  |  | 
4 | C[C@H]1[C@H](O)CCCN1c1nc(OC[C@@]23CCCN2C[C@H](F)C3)nc2c(F)c(-c3ccc(F)c4sc(N)c(C#N)c34)c(C(F)(F)F)cc12 [Compound 473] |  |  |  |  |  |  | 6.00 to 7.00 | 6.00 to 7.00 | 6.00 to 7.00 | > 7.00 | > 7.00 | 6.00 to 7.00 |  |  |  | 
5 | CN(C)C(=O)c1nnn2c1CN(c1nc(OC[C@@]34CCCN3C[C@H](F)C4)nc3c(F)c(-c4ccc(F)c5sc(N)c(C#N)c45)c(C(F)(F)F)cc13)CC2 [Compound 466] |  |  |  |  |  |  | 6.00 to 7.00 | 6.00 to 7.00 | 6.00 to 7.00 | > 7.00 | > 7.00 | 6.00 to 7.00 |  |  |  | 

Other lines, results leading:

Row | pIC50 [1, 5] | pIC50 [2, 6] | pIC50 [3, 7] | pIC50 (SW620 cells (KRAS G12V); class symbols) | pIC50 (GP2d cells (KRAS G12D); class symbols) | pIC50 [4, 8] | pIC50 ([1]; KRAS WT-GppNHp/RAF1 RBD HTRF) | pIC50 ([2]; KRAS G12R-GppNHp/RAF1 RBD HTRF) | pIC50 ([3]; KRAS G12V-GppNHp/RAF1 RBD HTRF) | pIC50 (SW620 cells (KRAS G12V)) | pIC50 (GP2d cells (KRAS G12D)) | pIC50 ([4]; KRAS G12D-GppNHp/RAF1 RBD HTRF) | pIC50 [1, 9] | pIC50 [2, 10] | pIC50 [3, 11] | pIC50 [4, 12] | SMILES
6 |  |  |  |  |  |  | 6.00 to 7.00 | 6.00 to 7.00 | 5.00 to 6.00 | 6.00 to 7.00 | > 7.00 | 6.00 to 7.00 |  |  |  |  | C[C@@H]1[C@H](N(C)c2nc(OC[C@@]34CCCN3C[C@H](F)C4)nc3c(F)c(-c4ccc(F)c5sc(N)c(C#N)c45)c(C(F)(F)F)cc23)CCN1C(=O)C(C)(C)F [Compound 424]
7 | 6.00 to 7.00 | 6.00 to 7.00 | 6.00 to 7.00 | > 7.00 | > 7.00 | 6.00 to 7.00 |  |  |  |  |  |  |  |  |  |  | C/C=C\C(=O)N1CC[C@@H](N(C)c2nc(OC[C@@]34CCCN3C[C@H](F)C4)nc3c(F)c(-c4ccc(F)c5sc(N)c(C#N)c45)c(C(F)(F)F)cc23)[C@H]1C [Compound 672]
8 |  |  |  |  |  |  |  |  |  | 6.00 to 7.00 | > 7.00 |  | 6.00 to 7.00 | 6.00 to 7.00 | 6.00 to 7.00 | 6.00 to 7.00 | CC(=O)N1CC[C@@H](N(C)c2nc(OC[C@@]34CCCN3C[C@H](F)C4)nc3c(F)c(-c4ccc(F)c5sc(N)c(C#N)c45)c(C(F)(F)F)cc23)[C@@H]1C [Compound 190, 4-(4-(((2S,3R)-1-acetyl-2-methylpyrrolidin-3-yl)(methyl)amino)-8-fluoro-2-(((2R,7aS)-2-fluorotetrahydro-1H-pyrrolizin-7a(5H)-yl)methoxy)-6-(trifluoromethyl)quinazolin-7-yl)-2-amino-7-fluorobenzo[b]thiophene-3-carbonitrile]
9 |  |  |  |  |  |  | > 7.00 | > 7.00 | > 7.00 | > 7.00 | > 7.00 | > 7.00 |  |  |  |  | CCN(c1nc(OC[C@@]23CCCN2C[C@H](F)C3)nc2c(F)c(-c3ccc(F)c4sc(N)c(C#N)c34)c(C(F)(F)F)cc12)[C@H]1CCN(C(=O)COC)C1 (atropisomer, axis not shown) [Compound 561]
10 |  |  |  |  |  |  |  |  |  | > 7.00 | > 7.00 |  | 6.00 to 7.00 | 6.00 to 7.00 | 6.00 to 7.00 | 6.00 to 7.00 | C[C@H]1CCN1c1nc(OC[C@@]23CCCN2C[C@H](F)C3)nc2c(F)c(-c3ccc(F)c4sc(N)c(C#N)c34)c(C(F)(F)F)cc12 [Compound 235]
11 | > 7.00 | > 7.00 | > 7.00 | > 7.00 | > 7.00 | > 7.00 |  |  |  |  |  |  |  |  |  |  | CCN(c1nc(OCC23CCCN2CC(F)C3)nc2c(F)c(-c3ccc(F)c4sc(N)c(C#N)c34)c(C(F)(F)F)cc12)C1CCN(C(=O)c2ncccn2)C1 (stereo not drawn) [Compound 712]

Source: US20260042764A1, “COMPOSITIONS AND METHODS FOR INHIBITION OF KRAS” (TheRas, Inc., priority 2022, published 2026)
